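Grown in 96-well plates, cells were treated for 48 hours with each compound at five concentrations. Insufficient inhibition: endpoint recorded as highest concentration tested. The concentration for 50% growth inhibition is given as GI50.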 Calls of active or inactive are those of the source. No stated cut-off is given here; in the data, active = GI50 up to about 1.1 µM and inactive = higher.
Tests used:
Test in all cases: growth of human tumour cells (NCI), 48 h
MDA-MB-435 = test system: MDA-MB-435
OVCAR-4 = test system: OVCAR-4
SF-539 = test system: SF-539
BT-549 = test system: BT-549
HT-29 = test system: HT-29
KM12 = test system: KM12
SNB-19 = test system: SNB-19
MCF7 = test system: MCF7
786-0 = test system: 786-0
OVCAR-3 = test system: OVCAR-3
OVCAR-5 = test system: OVCAR-5
HOP-62 = test system: HOP-62
MDA-N = test system: MDA-N
SK-MEL-2 = test system: SK-MEL-2
CAKI-1 = test system: CAKI-1
NCI-H522 = test system: NCI-H522
SK-OV-3 = test system: SK-OV-3
OVCAR-8 = test system: OVCAR-8
K562 = test system: K562
NCI-H226 = test system: NCI-H226

Measured: GI50

N#Cc1ccc(N2CCOCC2)cc1
inactive: MDA-MB-435 > 100 µM | OVCAR-4 > 100 µM | SF-539 > 100 µM | BT-549 24.9 µM | HT-29 > 100 µM | KM12 > 100 µM | SNB-19 > 100 µM | MCF7 > 100 µM | 786-0 > 100 µM | OVCAR-3 > 100 µM | OVCAR-5 > 100 µM | HOP-62 > 100 µM | MDA-N > 100 µM | SK-MEL-2 > 100 µM | CAKI-1 > 100 µM | NCI-H522 34.2 µM | SK-OV-3 > 100 µM | OVCAR-8 > 100 µM

COc1cc(/C=C2\N=C(c3ccccc3)N(c3nc4c(OC)ccc(OC)c4s3)C2=O)cc(OC)c1OC
inactive: MDA-MB-435 31.3 µM | OVCAR-4 > 100 µM | BT-549 > 100 µM | K562 34.8 µM | HT-29 > 100 µM | KM12 61.8 µM | SNB-19 > 100 µM | MCF7 34.3 µM | 786-0 55 µM | OVCAR-3 > 100 µM | OVCAR-5 > 100 µM | HOP-62 > 100 µM | MDA-N 35.8 µM | SK-MEL-2 > 100 µM | CAKI-1 > 100 µM | NCI-H522 35.7 µM | SK-OV-3 > 100 µM | OVCAR-8 86.1 µM

CNC(=O)C1OC(n2cnc3c(NCc4cccc(I)c4)nc(Cl)nc32)C(O)C1O (stereo not drawn)
inactive: MDA-MB-435 11.3 µM | SF-539 11 µM | NCI-H226 7.69 µM | BT-549 14.1 µM | K562 12.9 µM | KM12 12 µM | SNB-19 12.4 µM | MCF7 12.8 µM | 786-0 18.6 µM | OVCAR-3 13 µM | OVCAR-5 14 µM | HOP-62 12.7 µM | MDA-N 20.7 µM | SK-MEL-2 14.7 µM | CAKI-1 19.3 µM | SK-OV-3 17.2 µM | OVCAR-8 13.8 µM

O=C(N/N=C1\CCc2ccccc21)N/N=C1\CCc2ccccc21
inactive: MDA-MB-435 > 100 µM | SF-539 > 100 µM | NCI-H226 > 100 µM | BT-549 > 100 µM | K562 > 100 µM | HT-29 > 100 µM | KM12 > 100 µM | SNB-19 > 100 µM | MCF7 > 100 µM | 786-0 > 100 µM | OVCAR-3 > 100 µM | OVCAR-5 > 100 µM | HOP-62 > 100 µM | MDA-N 11.2 µM | SK-MEL-2 > 100 µM | CAKI-1 > 100 µM | NCI-H522 > 100 µM | SK-OV-3 > 100 µM | OVCAR-8 > 100 µM

O=c1[nH]c(=O)n([C@@H]2O[C@H](CO)[C@@H](O)[C@@H]2F)cc1I [FIALURIDINE]
inactive: MDA-MB-435 > 100 µM | OVCAR-4 > 100 µM | SF-539 > 100 µM | NCI-H226 > 100 µM | BT-549 39.2 µM | K562 > 100 µM | HT-29 > 100 µM | KM12 > 100 µM | SNB-19 > 100 µM | MCF7 67.6 µM | 786-0 > 100 µM | OVCAR-3 > 100 µM | OVCAR-5 > 100 µM | HOP-62 > 100 µM | MDA-N > 100 µM | CAKI-1 > 100 µM | NCI-H522 > 100 µM | SK-OV-3 > 100 µM | OVCAR-8 > 100 µM

O=C1c2ccccc2C(C2c3ccccc3C(=O)c3cc(Br)ccc32)c2ccc(Br)cc21 (stereo not drawn)
inactive: MDA-MB-435 > 100 µM | OVCAR-4 > 100 µM | NCI-H226 > 100 µM | BT-549 > 100 µM | K562 31.8 µM | HT-29 > 100 µM | KM12 > 100 µM | SNB-19 > 100 µM | MCF7 > 100 µM | 786-0 > 100 µM | OVCAR-3 > 100 µM | OVCAR-5 > 100 µM | HOP-62 > 100 µM | MDA-N > 100 µM | CAKI-1 > 100 µM | NCI-H522 > 100 µM | SK-OV-3 > 100 µM | OVCAR-8 > 100 µM

Cc1c(C(=O)N2CCN(c3ccc([N+](=O)[O-])cc3)CC2)[n+]([O-])c2cc(Cl)c(Cl)cc2[n+]1[O-]
inactive: MDA-MB-435 35.7 µM | OVCAR-4 10.8 µM | SF-539 18.6 µM | BT-549 16.9 µM | K562 26.5 µM | HT-29 25.2 µM | KM12 36.8 µM | SNB-19 18.3 µM | MCF7 16.2 µM | 786-0 16.5 µM | OVCAR-3 22.8 µM | OVCAR-5 21.6 µM | HOP-62 21.7 µM | MDA-N 26.7 µM | SK-MEL-2 31.3 µM | CAKI-1 25.1 µM | NCI-H522 16.7 µM | SK-OV-3 15.9 µM | OVCAR-8 16.9 µM

Reference: ChEMBL document CHEMBL1201862, “PubChem BioAssay data set” (2004)
